{
  "source": "ChEMBL document CHEMBL1158263",
  "about": "“A New Prenylated Flavone from Artocarpus champeden” (J Nat Prod, 1996)",
  "experiment": "Toxicity against Artemia salina",
  "assay_type": "organism-based",
  "details": "in vivo",
  "data": [
    {"smiles": "CC(C)=CC1Oc2cc(O)c(O)cc2-c2oc3cc(O)cc(O)c3c(=O)c21", "note": "(stereo unspecified) [CYCLOCHAMPEDOL]", "values": [
      {"measurement": "LC50", "result": 15.1, "unit": "µg/mL"}
    ]}
  ]
}
